Data: patent US7355074B2, “Compounds having aromatic rings and side-chain amide-functionality and a method for transporting monovalent anions across biological membranes using the same” (The University of Maryland, priority 2003, dated 2008)

Key:
[1] = voltage-clamp experiments on black lipid membranes; assay type: biochemical
Protocol: FIG. 10(A) represents current events across a BLM in voltage clamp experiments after application of calixarene tetrabutylamide 2 ([…]). The voltage applied was −20 mV for all three recordings. (B) The distribution of conductance ranges observed in voltage clamp experiments with 2 acting as an ion channel.
The voltage-clamp assay was conducted using a setup with two chambers, each filled with an electrolyte solution and separated by a BLM. After voltage was applied across the membrane, a solution of 2 was added to one of the chambers. Subsequent current across the membrane was attributed to ion transport mediated by 2, since control experiments wit DMSO solvent were negative. The abrupt changes in current intensity (events) are consistent with an ion channel mechanism. The relatively long-lasting open states indicate that channels formed by calixarene tetrabutylamide 2 are stable.
Voltage-Clamp Experiments. […] Once calixarene tetrabutylamide 2 was incorporated into the lipid, the current through the membrane was recorded using both a chart recorder and directly digitized and stored as a computer file. The conductance values were calculated by dividing the current by the applied voltage. The events were grouped into conductance ranges of equal magnitude for the purpose of showing the distribution of recorded conductances.

[2] = liposome potential assay with safranin O; assay type: biochemical
Protocol: FIG. 3 illustrates liposome potential assays. Suspension of EYPC LUVs in phosphate buffer was used (10 m M Nan H3-n PO4, n=1, 2, pH 6.4, 100 m M KCl or 75 m M Na2 H3-n PO4, n=1, 2, pH 6.4, 100 m M KCl or 75 m M NA2 SO4 inside and 100 m M NaCl, 60 nM safranin O, ex 480 nm, em 520 nm, outside). Legend for trace denotes the formation of potential in: —KCl vesicles upon application of valinmycin·Na2SO4 vesicles upon application of 3, —KCl vesicles upon application of 3, —Na2SO4 vesicles upon application of valinomycin.
Analysis of pH changes in the liposomes experiencing a CT gradient. a) Outwardly directed gradient of Cl:HPTS-loaded vesicles (100 μL of the stock solution), filled with a saline phosphate buffer (10 mM sodium phosphate, pH 6.4, 100 mM NaCl) were suspended in 1.9 mL of an isosmotic phosphate sulfate buffer (10 mM sodium phosphate, pH 6.0, 75 mM Na2SO4) and placed into a fluorimetric cell. The emission of HPTS at 510 nm was monitored with excitation wavelengths at 403 and 460 nm simultaneously. During the experiment, 20 μL of a 0-2 mM DMSO solution of the compound of interest was added through an injection port. Intravesicular pH values were obtained as described for pH-stat transport assays. At the end of experiment, the aqueous compartment of liposomes was equilibrated with extravesicular solution by lysis of liposomes with detergent (40 μL of 5% aqueous Triton X100). b) Inwardly directed gradient of Cl:HPTS-loaded vesicles (100 μL of the stock solution), filled with a isoosimomolar sulfate phosphate buffer (10 mM sodium phosphate, pH 6.0, 75 mM Na2SO4) were suspended in 1.9 mL of an isosmotic phosphate saline buffer (10 mM sodium phosphate, pH 6.4, 100 mM NaCl) and placed into a fluorimetric cell. Further analysis was conducted as described for the case of an outwardly directed gradient of […]. Analysis of the electrostatic potential on the surface of liposomes. LUVs (100 μL of stock solution, 100 mM KCl inside and outside or 75 mM Na2SO4 inside and outside) were suspended in 1.9 mL of 100 mM NaCl buffer containing 60 nM safranin O (a potential-sensitive dye). Safranin O emission was monitored at 580 nm with excitation at 520 nm. During the course of the experiment, 20 μL of a 0-0.12 mM DMSO solution of valinomycin or 0-2 mM of 3-8 DMSO solution was added. Experiments were completed by injection of 20 μL of 1 mM aqueous solution of the defect-inductive peptide melittin.

stability of the channels (open states) [1]	SMILES	centre of the conductance distribution ([1]; 480 events, 1 M KCl) [pS]	transmembrane potential formed ([2]; Na2SO4 inside, NaCl outside, safranin O outside, 1 mol %)	time to formation of the transmembrane potential ([2]; Na2SO4 inside, NaCl outside, 1 mol %) [min]	ability to create a transmembrane potential ([2]; Na2SO4 vesicles in NaCl buffer (conditions of the trimer))	magnitude of the transmembrane potential ([2]; inwardly directed Cl− gradient, compared with valinomycin in liposomes with 100 mM KCl inside, 100 mM NaCl outside)
stable	CCCCNC(=O)COc1c2cccc1Cc1cccc(c1OCC(=O)NCCCC)Cc1cccc(c1OCC(=O)NCCCC)Cc1cccc(c1OCC(=O)NCCCC)C2 [calix[4]arene tetrabutylamide 2, Calix[4]arene tetrabutylamide]	~100	–	–	–	–
–	CCCCNC(=O)COc1ccccc1Cc1cccc(Cc2ccccc2OCC(=O)NCCCC)c1OCC(=O)NCCCC [trimer 3, Tris-(N-butyl-2-phenoxyacetamide)]	–	stable negative charge inside liposomes	≤ 2	created transmembrane potential	comparable to that generated by 0.12 mol % valinomycin
